One data set has as its system PC12 cells. Nature of the data set: Protection of PC12 cells against camptothecin-induced cell death (BCECF AM fluorescence). Format: cell-based. On the procedure: The 2-amino-4,5,6,7-tetrahydrobenzothiazole hydrogen iodide, 1-(4-methylphenyl)-2-(4,5,6,7-tetrahydro-2-imino-3(2H)-benzothiazolyl)-ethanone hydrobromide, and analogues were tested for their ability to protect PC12 cells against the toxic agent, camptothecin. PC12 cells were cultured in RPMI1640 media containing 10% horse serum and 5% fetal calf serum (37° C., pH 7.4) until confluent. Thereafter, 2.2×10^4 cells per mL were added to each trough of a 96 well plate (approximately 6,270 cells per well 285 μL) and were left to grow for 12 h. The media then was removed and was replaced by media with and without the compounds to be tested, including precursor, PFTα, and numerous analogues (concentration 100-400 nM, prepared in DMSO to a final dilution of 0.4%, 8 wells per concentration). Following 6 h of incubation, camptothecin (40 μM) was added to 4 of each 8 wells, and the cells were incubated for a further 24 h. Cells then were gently washed twice with phosphate buffered saline (PBS: 0.1 M, 37° C., pH 7.4) and were incubated in PBS containing the live-cell indicator dye, 2′,7′-bis(2-carboxyethey)-5-6-carboxyfluorescein AM ester (BCECF AM: 5 μM) (Molecular Probes, CA), for 45 min in minimal light. This fluorescent dye was taken up and retained by live cells. Finally, the cells were washed twice in PBS and their fluorescence then was quantified (excitation: 490 nm, emission: 535 nm, Perkin Elmer HTS 7000).
PC12 cell survival was also assessed. One hundred percent cell survival was determined from cells incubated in the absence of both any compound and camptothecin. […] Compound-induced toxicity was assessed by comparing cells treated with compound at various concentrations in the absence of camptothecin with cells incubated in the absence of both compound and camptothecin. […] Compound-induced cellular protection was assessed by comparing cells incubated with camptothecin with cells incubated with camptothecin in the presence of compound, in a concentration-dependent manner.

The subject of a further data set is rat hippocampal neurons. Description: Neuronal survival assay in cultured hippocampal neurons treated with camptothecin or etoposide. The class given is cell-based. The following applies: for neuroprotection of hippocampal neurons against camptothecin (in words): 100 nM, added 1 h before camptothecin 5 μM; for protection of primary hippocampal cells against death induced by camptothecin and etoposide (in words) / neurons killed: camptothecin 5 μM, etoposide 2.5 μM; for neurons killed: hippocampal neurons. On the procedure: 2-amino-4,5,6,7-tetrahydrobenzothiazole hydrogen and 1-(4-methylphenyl)-2-(4,5,6,7-tetrahydro-2-imino-3(2H)-benzothiazolyl)-ethanone hydrobromide and their analogues were assessed for their ability to protect rat hippocampal cells in culture from camptothecin ([…]).
Dissociated hippocampal cell cultures were established from embryonic day 18 Sprague-Dawley rats (Harlan, Inc.) as described previously. […] 77:220-28. Cells were grown in polyethyleneimine-coated plastic dishes or 22 m^2 glass coverslips, and incubated in Neurobasal medium containing B27 supplements, 2 mM L-glutamine, 25 mg/ml gentamycin, 1 mM Hepes (Gibco BRL) and 0.001% gentamicin sulfate. All experiments were performed using 9-10 day-old cultures. Camptothecin and etoposide (Signia) were prepared as 500× stocks in DMSO. Neuron survival was quantified by established methods. […] Briefly, viable neurons in premarked fields (10× objective) were counted before experimental treatment and at specified time points thereafter. Neurons with intact neurites of uniform diameter and soma with a smooth round appearance were considered viable. In contrast neurons with fragmented neurites and vacuolated soma were considered non-viable.

Setting [1] is: 6 h preincubation with compound, camptothecin 40 μM for 24 h; read-out: PD50; concentration of compounds required to induce 50% protection (PC50) of PC12 cells from camptothecin-induced cell-death.
[2] abbreviates: compounds 100-400 nM, camptothecin 40 μM 24 h.

Counter-ions that a name gives are not always drawn. Like-named read-outs stand apart in the source and are kept apart here.

With “1-(4-phenylphenyl)-2-(4,5,6,7-tertahydro-2-imino-3(2H)-benzothiazolyl)-ethanone hydrobromide [Compound 10]”, the EC50 with PC12 cells (setting [1]) came out at 767 nM. The same measure, in the same setting: the result for “2-Imino-3-butyl-4,5,6,7-tetrahydro-3(2H)-benzothiazole hydrobromide [Compound 26]” reads 395 nM; that for “2-imino-3-(4′-cyanobenzyl)-4,5,6,7-tetrahydro-3(2H)-benzothiazole hydrobromide [Compound 21]”, 418 nM. The same measure, in the same setting: the result for “2-imino-3-(4′-fluorobenzyl)-4,5,6,7-tetrahydro-3(2H)-benzothiazole hydrobromide [Compound 16]” reads 154 nM; that for “2-imino-3-(naphthalenylmethyl-4,5,6,7-tetrahydro-3(2H)-benzothiazole hydrobromide [Compound 24]”, 318 nM. On the same count and under the same terms, the result for `N=c1sc2c(n1CC(=O)c1ccc(F)cc1)CCCC2` [Compound 4, 1-(4-fluorophenyl)-2-(4,5,6,7-tertahydro-2-imino-3 (2H)-benzothiazolyl)-ethanone hydrobromide] reads 379 nM. In the case of `Br.COc1ccc(C(=O)Cn2c3c(sc2=N)CCCC3)cc1` [Compound 6, 1-(4-methoxylphenyl)-2-(4,5,6,7-tertahydro-2-imino-3(2H)-benzothiazolyl)-ethanone hydrobromide], the EC50 in the data set with PC12 cells (setting [1]) turned out to be 182 nM. Further, the “protection of PC12 cells against camptothecin-induced death (in words)” value (“protection of PC12 cells” below) in the data set with PC12 cells (setting [2]) is on record as “highly potent”. For the compound `Br.COc1ccccc1C(=O)Cn1c2c(sc1=N)CCCC2` [Compound 7, 1-(2-methoxylphenyl)-2-(4,5,6,7-tertahydro-2-imino-3(2H)-benzothiazolyl)-ethanone hydrobromide], the EC50 in the data set on PC12 cells (setting [1]) is 348 nM. Moreover, the “protection of PC12 cells” value in the data set with PC12 cells (setting [2]) is on record as “highly potent”.

Take `Br.COc1cccc(C(=O)Cn2c3c(sc2=N)CCCC3)c1` [Compound 8, 1-(3-methoxylphenyl)-2-(4,5,6,7-tertahydro-2-imino-3(2H)-benzothiazolyl)-ethanone hydrobromide]: in the data set on PC12 cells (setting [1]), the EC50 was determined as 418 nM. In addition, the “neuroprotection of hippocampal neurons against camptothecin (in words)” value in the data set with rat hippocampal neurons is “significantly protected”. In addition, the “protection of primary hippocampal cells against death induced by camptothecin and etoposide (in words)” value (“protection of primary hippocampal cells” for short) in the data set with rat hippocampal neurons (24 h) is given as “highly potency”. Turning to `Br.N=c1sc2c(n1CC(=O)c1ccc(Cl)cc1)CCCC2` [Compound 9, 1-(4-chlorophenyl)-2-(4,5,6,7-tertahydro-2-imino-3(2H)-benzothiazolyl)ethanone hydrobromide], the EC50 in the data set on PC12 cells (setting [1]) was found to be 187 nM. The “protection of PC12 cells” value in the data set on PC12 cells (setting [2]) was “highly potent”. In the data set on rat hippocampal neurons, the “neuroprotection of hippocampal neurons against camptothecin (in words)” value was “significantly protected”. Besides, the “protection of primary hippocampal cells” value in the data set with rat hippocampal neurons (24 h) is listed as “highly potency”. For the compound `N=c1sc2c(n1CC(=O)c1ccc([N+](=O)[O-])cc1)CCCC2` [Compound 11, 1-(4-nitrophenyl)-2-(4,5,6,7-tertahydro-2-imino-3(2H)-benzothiazolyl)ethanone hydrobromide], in the data set with PC12 cells (setting [1]), the EC50 was 410 nM. With `Br.N=c1sc2c(n1CC1CC1)CCCC2` [Compound 15, 3-(cyclopropylmethyl)-4,5,6,7-tetrahydro-2(3H)-benzothiazolimine Hydrobromide], in the data set on PC12 cells (setting [1]), the EC50 worked out at 728 nM. The “neuroprotection of hippocampal neurons against camptothecin (in words)” value in the data set with rat hippocampal neurons is recorded as “could not protect neurons effectively”. Further, the “neuroprotection of hippocampal neurons against etoposide (in words)” value in the data set on rat hippocampal neurons (added 1 h before etoposide 2.5 μM) is “activity comparable to PFTα”. In the data set on rat hippocampal neurons (24 h), the “protection of primary hippocampal cells” value is given as “highly potency”. For the same compound, the neuronal survival in the data set with rat hippocampal neurons (pretreated with 100 nM of analogue, then camptothecin (5 μM), 24 h) is reported as 23%. For `N=c1sc2c(n1Cc1ccc(F)cc1F)CCCC2` [Compound 17, 2-imino-3-(2′,4′-difluorobenzyl)-4,5,6,7-tetrahydro-3(2H)-benzothiazole hydrobromide], the EC50 with PC12 cells (setting [1]) turned out to be 93 nM. As to `Cc1ccc(Cn2c3c(sc2=N)CCCC3)cc1` [Compound 18, 2-imino-3-(4′-methylbenzyl)-4,5,6,7-tetrahydro-3(2H)-benzothiazole hydrobromide], the EC50 in the data set on PC12 cells (setting [1]) was 1000 nM. Still for that read-out and setting: in the case of `CC(C)(C)c1ccc(Cn2c3c(sc2=N)CCCC3)cc1` [Compound 19, 2-imino-3-(4′-tert-butylbenzyl)-4,5,6,7-tetrahydro-3(2H)-benzothiazole hydrobromide] it was 315 nM; in that of `N=c1sc2c(n1Cc1ccc([N+](=O)[O-])cc1)CCCC2` [Compound 20, 2-imino-3-(4′-nitrobenzyl)-4,5,6,7-tetrahydro-3(2H)-benzothiazole hydrobromide], 144 nM.

Consider `N=c1sc2c(n1Cc1ccc(C(F)(F)F)cc1)CCCC2` [Compound 22, 2-imino-3-(4′-trifluorobenzyl)-4,5,6,7-tetrahydro-3(2H)-benzothiazole hydrobromide], for which, in the data set on PC12 cells (setting [1]), the EC50 is 327 nM. On the same count and under the same terms, in the case of `N=c1sc2c(n1CCc1ccccc1)CCCC2` [Compound 25, 2-imino-3-phenylethyl-4,5,6,7-tetrahydro-3(2H)-benzothiazole] it was 1100 nM; in that of `Cc1ccc(C(=O)Cn2c3c(oc2=N)CCCC3)cc1` [Compound 27, 1-(4-methylphenyl)-2-(4,5,6,7-tetrahydro-2-imino-3(2H)-benzoxazolyl)ethanone hydrobromide], 69 nM; in that of `CCC(=O)Cn1c2c(oc1=N)CCCC2` [Compound 28, 1-(4,5,6,7-tertahydro-2-imino-3(2H)-benzoxazolyl)-2-butanone hydrobromide], 143 nM. On the same count and under the same terms, the result for `Cc1ccc(-c2cn3c4c(sc3n2)CCCC4)cc1` [Compound 29, 2-(4′-methylphenyl)-5,6,7,8-tetrahydroimidazo[2,1-b]benzothiazole] reads 214 nM; that for `N=c1sc2c(n1Cc1cccc(Cn3c4c(sc3=N)CCCC4)n1)CCCC2` [Compound 30, 2,6-Bis[(4,5,6,7-tetrahydro-2-imino-3(2H)-benzothiazolyl)methyl]pyridine Dihydrobromide], 133 nM. Consider `CC[C@@]1(O)C(=O)OCc2c1cc1n(c2=O)Cc2cc3ccccc3nc2-1` [camptothecin, reference compound], for which the neurons killed result with rat hippocampal neurons was “approximately 85%”.

Consider `COc1cc([C@@H]2c3cc4c(cc3[C@@H](O[C@@H]3O[C@@H]5CO[C@@H](C)O[C@H]5[C@H](O)[C@H]3O)[C@H]3COC(=O)[C@H]23)OCO4)cc(OC)c1O` [etoposide, reference compound], for which the neurons killed entry in the data set on rat hippocampal neurons is reported as “approximately 85%”. Consider `I.Nc1nc2c(s1)CCCC2` [precursor, 2-amino-4,5,6,7-tetrahydrobenzothiazole hydrogen iodide], for which the “protection of PC12 cells” value with PC12 cells (setting [2]) is “low activity”. For the same compound, the EC50 with PC12 cells (read-out: PD50; concentration of compounds required to induce 50% protection (PC50) of PC12 cells from camptothecin-induced cell-death; 6 h preincubation with compound, camptothecin 40 μM for 24 h) came out at 5750 nM. Also, in the data set with rat hippocampal neurons (concentrations up to 400 nM), the “toxicity when administered alone to hippocampal cells” value is given as “neither PFTα (5) nor its precursor were toxic”. Turning to “ethyl 2-(4,5,6,7-tertahydro-2-imino-3(2H)-benzothiazolyl)-acetate hydrobromide [Compound 2]”, in the data set with PC12 cells (setting [1]), the EC50 was 595 nM.

Values taken from patent publication US20040067991A1, “Tetrahydrobenzothiazole analogues as neuroprotective agents” (priority 2003, published 2004).
